The target in test [1] is T1, Prostaglandin G/H synthase 1 (Ovis aries, UniProt P05979).
T1 sequence (P05979 whole entry): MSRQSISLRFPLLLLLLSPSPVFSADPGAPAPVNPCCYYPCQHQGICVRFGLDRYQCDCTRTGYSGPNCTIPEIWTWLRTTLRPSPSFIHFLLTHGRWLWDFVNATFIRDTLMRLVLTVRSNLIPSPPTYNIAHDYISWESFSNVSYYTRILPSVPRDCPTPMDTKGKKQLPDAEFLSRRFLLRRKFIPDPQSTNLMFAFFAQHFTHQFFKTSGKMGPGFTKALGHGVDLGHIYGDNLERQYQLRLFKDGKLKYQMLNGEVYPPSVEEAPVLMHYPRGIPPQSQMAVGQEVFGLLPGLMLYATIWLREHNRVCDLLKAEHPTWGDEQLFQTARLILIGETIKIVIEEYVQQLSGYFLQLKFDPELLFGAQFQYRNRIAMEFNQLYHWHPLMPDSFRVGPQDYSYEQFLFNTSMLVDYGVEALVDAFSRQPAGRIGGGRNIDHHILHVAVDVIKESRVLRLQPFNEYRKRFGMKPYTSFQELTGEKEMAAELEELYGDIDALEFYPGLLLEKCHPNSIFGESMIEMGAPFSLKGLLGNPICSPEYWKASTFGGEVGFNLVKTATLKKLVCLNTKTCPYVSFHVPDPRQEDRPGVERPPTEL
Nature of the test: Inhibition of ovine COX-1 assessed as 12-HHT formation preincubated for 5 mins followed by addition of arachidonic acid as substrate measured after 5 mins by HPLC analysis.

The target of test [2] is T2, Arachidonate 5-lipoxygenase-activating protein (Homo sapiens, UniProt P20292).
T2 sequence (P20292 whole entry): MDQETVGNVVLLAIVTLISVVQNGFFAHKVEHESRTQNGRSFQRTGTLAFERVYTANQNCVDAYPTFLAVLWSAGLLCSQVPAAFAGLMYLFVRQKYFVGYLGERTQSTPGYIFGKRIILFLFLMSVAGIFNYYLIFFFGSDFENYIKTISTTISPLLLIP
Briefly: Antagonist activity at FLAP in human PMNC assessed as inhibition of A23187-induced LTB4 biosynthesis pre-incubated for 2 mins followed by addition of A23187 measured after 5 mins by radioimmunoassay.

Test [3] has as its target T3, Prostaglandin E synthase (Homo sapiens, UniProt O14684).
T3 sequence (O14684 whole entry): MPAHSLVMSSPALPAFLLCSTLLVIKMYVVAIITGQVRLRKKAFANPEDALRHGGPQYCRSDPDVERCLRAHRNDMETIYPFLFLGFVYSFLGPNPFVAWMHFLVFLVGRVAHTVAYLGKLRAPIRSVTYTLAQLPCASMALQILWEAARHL
Nature of the test: Inhibition of mPGES-1 in human A549 cells assessed as PGE2[…] formation preincubated for 60 mins prior to IL-beta stimulation measured after 24 hrs by EIA. Format: cell-based.

Test [4] has as its target T3, Prostaglandin E synthase. Briefly: Inhibition of human mPGES-1 expressed in CHO-K1 cells using PGH2 as substrate assessed as PGE2 formation preincubated for 20 mins followed by addition of substrate measured after 60 secs by HTRF assay. Format: cell-based. On the technique in general: Time-resolved FRET reads energy transfer from a long-lived donor to a nearby acceptor.

This passage reports IC50 results from ChEMBL document CHEMBL4425081, “Design and Development of Microsomal Prostaglandin E2 Synthase-1 Inhibitors: Challenges and Future Directions” (J Med Chem, 2016).

SMILES strings stand for the structures.

Turning to `CC(C)c1ccc2c(c1)c(SC(C)(C)C)c(CC(C)(C)C(=O)O)n2Cc1ccc(Cl)cc1`, the IC50 in test [1] was determined as 8000 nM; in test [2], 2.5 nM.
In the case of `Cn1c(Nc2cc(CNC(=O)C3(C(F)(F)F)CC3)ccc2Cl)nc2cc(C(=O)NCC3CC3)c(OCC(F)F)cc21`, the IC50 on Prostaglandin E synthase [3] came out at 1.2 nM; at Prostaglandin E synthase [4], 0.1 nM.

As usually defined, the IC50 is the concentration that gives 50% inhibition.
